PMC10563463 (Cell Transplantation, 2023)

Biological target: recombinant human SUV39H1 (rhSUV39H1) (Homo sapiens, UniProt O43463)
Assay: biochemical

Chain of recombinant human SUV39H1 (rhSUV39H1) (O43463 whole entry): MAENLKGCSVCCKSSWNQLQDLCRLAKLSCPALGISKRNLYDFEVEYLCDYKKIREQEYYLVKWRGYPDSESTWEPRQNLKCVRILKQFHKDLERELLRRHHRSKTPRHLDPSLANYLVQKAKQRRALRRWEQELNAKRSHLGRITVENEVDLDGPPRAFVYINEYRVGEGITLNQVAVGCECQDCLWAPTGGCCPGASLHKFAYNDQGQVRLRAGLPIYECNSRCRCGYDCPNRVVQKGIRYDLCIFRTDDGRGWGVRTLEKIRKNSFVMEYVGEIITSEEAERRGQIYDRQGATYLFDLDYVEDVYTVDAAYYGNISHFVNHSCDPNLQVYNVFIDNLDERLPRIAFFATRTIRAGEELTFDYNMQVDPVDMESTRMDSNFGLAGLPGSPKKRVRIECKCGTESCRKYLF

CC(C)(O)[C@@H]1CC[C@](C)([C@H]2[C@@H](O)C[C@@]3(C)[C@@H]4C[C@H](O[C@@H]5O[C@H](CO)[C@@H](O)[C@H](O)[C@H]5O)[C@H]5C(C)(C)[C@@H](O[C@@H]6OC[C@@H](O)[C@H](O)[C@H]6O)CC[C@@]56C[C@@]46CC[C@]23C)O1 [Astragaloside IV]
Kd: 21.4 µM
